According to patent US5935861A, “Diazonium ion assay reagents and methods for their use” (priority 1997, dated 1999):

Assay type: physicochemical
From the text: . An exemplary synthesis is the synthesis of 2-methyl-3-nitroaniline diazonium ion (2). In this embodiment, 2-methyl-3-nitroaniline (1) is converted to the diazonium ion (2) by reaction with sodium nitrite in an acidic aqueous medium. The reaction is illustrated in Scheme I below. The 2-methyl-3-nitroaniline diazonium ion (2) is capable of reacting with bilirubin to form a detectable product, and is thus useful in assays for detecting and quantitating bilirubin in a sample. […]

Cc1c(N)cccc1[N+](=O)[O-] [2-methyl-3-nitroaniline]
solubility in water or other aqueous systems (in words): good solubility in aqueous systems
